Assay results taken from PubChem BioAssay AID248 (DTP/NCI, 2004).
“And” between values parts separate entries of the source, which are not always exact repeats. Equal values may be shown once. Toxic doses and inconclusive results are not listed. Rule as the data show it: active = T/C of 150% or more; inactive = T/C below 125%.

System: L1210 leukemia ip in BDF1 mice, survival T/C
Assay: NCI In Vivo Anticancer Drug Screen. Data for tumor model L1210 Leukemia (intraperitoneal) in B6D2F1 (BDF1) mice
Conditions: endpoint: mean survival time, higher = longer survival
Method in brief: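 Antitumor effect is assessed in tumor-bearing animals. Survival in the compound arm is compared with a vehicle-dosed control arm and expressed as their quotient.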

[1] = dose: 100.0 mg/kg/injection, schedule: Q01DX009 (ip), vehicle: saline with Tween-80
[2] = dose: 200.0 mg/kg/injection, schedule: Q01DX009 (ip), vehicle: saline with Tween-80
[3] = dose: 400.0 mg/kg/injection, schedule: Q01DX009 (ip), vehicle: saline with Tween-80
[4] = dose: 100.0 mg/kg/injection, schedule: Q01DX001 (ip), vehicle: saline
[5] = dose: 200.0 mg/kg/injection, schedule: Q01DX001 (ip), vehicle: saline
[6] = dose: 100.0 mg/kg/injection, schedule: Q04DX003 (ip), vehicle: saline
[7] = dose: 200.0 mg/kg/injection, schedule: Q04DX003 (ip), vehicle: saline
[8] = dose: 400.0 mg/kg/injection, schedule: Q04DX003 (ip), vehicle: saline
[9] = dose: 400.0 mg/kg/injection, schedule: Q01DX001 (ip), vehicle: saline
[10] = dose: 100.0 mg/kg/injection, schedule: Q04DX003 (ip), vehicle: Klucel (hydroxypropylcellulose) (HPC)
[11] = dose: 100.0 mg/kg/injection, schedule: Q01DX009 (ip), vehicle: Klucel (hydroxypropylcellulose) (HPC)
[12] = dose: 200.0 mg/kg/injection, schedule: Q01DX009 (ip), vehicle: Klucel (hydroxypropylcellulose) (HPC)
[13] = dose: 400.0 mg/kg/injection, schedule: Q01DX009 (ip), vehicle: Klucel (hydroxypropylcellulose) (HPC)
[14] = dose: 100.0 mg/kg/injection, schedule: Q04DX002 (ip), vehicle: Klucel (hydroxypropylcellulose) (HPC)

Measured: T/C

O=[N+]([O-])c1ccc(OCc2ccccc2)c([N+](=O)[O-])c1
inactive: [1] 90 % of control | dose: 100.0 mg/kg/injection, schedule: Q04DX003 (ip), vehicle: saline with Tween-80 90 % of control | [2] 87 % of control | dose: 200.0 mg/kg/injection, schedule: Q04DX003 (ip), vehicle: saline with Tween-80 90 % of control | [3] 87 % of control | dose: 400.0 mg/kg/injection, schedule: Q04DX003 (ip), vehicle: saline with Tween-80 89 % of control

CCSCN1CCN(CSCC)CC1
inactive: [4] 98 % of control | [5] 104 % of control

CCOC(=O)C(C)C(O)c1ccc(OC)cc1 (stereo not drawn)
inactive: [1] 93 % of control | [2] 93 % of control

Cc1ccc(S(=O)(=O)OCC23CC4C5CC2C3(COS(=O)(=O)c2ccc(C)cc2)CC54)cc1
inactive: dose: 75.0 mg/kg/injection, schedule: Q01DX009 (ip), vehicle: Klucel (hydroxypropylcellulose) (HPC) 95 % of control | dose: 150.0 mg/kg/injection, schedule: Q01DX009 (ip), vehicle: Klucel (hydroxypropylcellulose) (HPC) 98 % of control | dose: 300.0 mg/kg/injection, schedule: Q01DX009 (ip), vehicle: Klucel (hydroxypropylcellulose) (HPC) 93 % of control

Cc1ccc(Cl)cc1NC(=O)OCCCl
inactive: [1] 95 % of control | [6] 97 % of control | [2] 91 % of control | [7] 100 % of control | [3] 91 % of control | [8] 95 % of control

CC(O)(CC(=O)O)c1ccc([N+](=O)[O-])cc1 (stereo not drawn)
inactive: dose: 50.0 mg/kg/injection, schedule: Q01DX001 (ip), vehicle: saline 96 % of control | [4] 102 % of control | [5] 108 % of control | [9] 102 % of control

CCCCOc1ccc(Nc2c3ccccc3nc3ccccc23)cc1
inactive: [10] 123 % of control

CC1C(C)(C)P(=O)(SCc2ccccc2)C1(C)C (stereo not drawn)
inactive: [6] 94 % of control | [7] 103 % of control | [8] 100 % of control

CCOC(OCC)c1cc(=O)[nH]c(NC(C)=O)n1
inactive: [11] 101 % of control | [12] 101 % of control | [13] 106 % of control

O=C(NCCCCCCCCCCNC(=O)Nc1ccc(C2=NCCCN2)cc1)Nc1ccc(C2=NCCCN2)cc1
inactive: dose: 3.12 mg/kg/injection, schedule: Q01DX Z (ip), vehicle: carboxymethylcellulose (CMC) 108 % of control | dose: 6.25 mg/kg/injection, schedule: Q01DX Z (ip), vehicle: carboxymethylcellulose (CMC) 111 % of control | dose: 9.5 mg/kg/injection, schedule: Q01DX001 (ip), vehicle: other 101 % of control | dose: 19.0 mg/kg/injection, schedule: Q01DX001 (ip), vehicle: other 110 % of control | dose: 25.0 mg/kg/injection, schedule: Q01DX Z (ip), vehicle: carboxymethylcellulose (CMC) 122 % of control | dose: 38.0 mg/kg/injection, schedule: Q01DX001 (ip), vehicle: other 101 % of control

CC(=O)Nc1ccc(N=NN(C)C)cc1
inactive: dose: 1.56 mg/kg/injection, schedule: Q04DX003 (ip), vehicle: saline with Tween-80 97 % of control and 101 % of control | dose: 3.12 mg/kg/injection, schedule: Q01DX001 (ip), vehicle: saline with Tween-80 101 % of control | dose: 3.12 mg/kg/injection, schedule: Q04DX003 (ip), vehicle: saline with Tween-80 97 % of control and 98 % of control | dose: 6.25 mg/kg/injection, schedule: Q01DX001 (ip), vehicle: saline with Tween-80 107 % of control | dose: 6.25 mg/kg/injection, schedule: Q04DX003 (ip), vehicle: saline with Tween-80 101 % of control and 104 % of control | dose: 12.5 mg/kg/injection, schedule: Q01DX001 (ip), vehicle: saline with Tween-80 108 % of control | dose: 12.5 mg/kg/injection, schedule: Q04DX003 (ip), vehicle: saline with Tween-80 100 % of control and 102 % of control | dose: 25.0 mg/kg/injection, schedule: Q01DX001 (ip), vehicle: saline with Tween-80 113 % of control

OCCSc1ccc(Cl)cc1
inactive: dose: 100.0 mg/kg/injection, schedule: Q01DX009 (ip), vehicle: other 97 % of control | dose: 200.0 mg/kg/injection, schedule: Q01DX009 (ip), vehicle: other 95 % of control

CC(=O)Oc1ccc2c(c1)C=CC1C2CCC2(C)/C(=N/NC(N)=S)CCC12 (stereo not drawn)
inactive: [14] 100 % of control | dose: 200.0 mg/kg/injection, schedule: Q04DX002 (ip), vehicle: Klucel (hydroxypropylcellulose) (HPC) 90 % of control | dose: 400.0 mg/kg/injection, schedule: Q04DX002 (ip), vehicle: Klucel (hydroxypropylcellulose) (HPC) 116 % of control

Nc1ccc2nc3c(N)ccc(N)c3nc2c1
inactive: dose: 100.0 mg/kg/injection, schedule: Q04DX002 (ip), vehicle: saline with Tween-80 97 % of control | dose: 200.0 mg/kg/injection, schedule: Q04DX002 (ip), vehicle: saline with Tween-80 105 % of control | dose: 400.0 mg/kg/injection, schedule: Q04DX002 (ip), vehicle: saline with Tween-80 105 % of control

CCN(CC)CCN(CCN(CC)CC)c1ccc2ccccc2c1
inactive: dose: 75.0 mg/kg/injection, schedule: Q01DX001 (ip), vehicle: acetone 111 % of control

Cc1ccc(S(=O)(=O)NNC(=O)c2cc(C)c(C)cc2N)cc1
inactive: [4] 97 % of control | [5] 101 % of control | [9] 95 % of control

CCC(CCc1ccc(OC)c(OC)c1)C(=O)O (stereo not drawn)
inactive: dose: 100.0 mg/kg/injection, schedule: Q01DX001 (ip), vehicle: saline with Tween-80 93 % of control | dose: 200.0 mg/kg/injection, schedule: Q01DX001 (ip), vehicle: saline with Tween-80 98 % of control | dose: 400.0 mg/kg/injection, schedule: Q01DX001 (ip), vehicle: saline with Tween-80 98 % of control

CN(C)CCCCCCN(C)C (tested in a mixture with another compound)
inactive: dose: 9.38 mg/kg/injection, schedule: Q01DX001 (ip), vehicle: saline 102 % of control | dose: 18.75 mg/kg/injection, schedule: Q01DX001 (ip), vehicle: saline 95 % of control | dose: 37.5 mg/kg/injection, schedule: Q01DX001 (ip), vehicle: saline 93 % of control

CC1(C)C=C(C(Br)c2cccc(Cl)c2)C(=O)c2ccccc21 (stereo not drawn)
inactive: [11] 101 % of control | [10] 109 % of control | [12] 104 % of control | dose: 200.0 mg/kg/injection, schedule: Q04DX003 (ip), vehicle: Klucel (hydroxypropylcellulose) (HPC) 106 % of control | [13] 106 % of control | dose: 400.0 mg/kg/injection, schedule: Q04DX003 (ip), vehicle: Klucel (hydroxypropylcellulose) (HPC) 104 % of control

COc1cc(Cn2cccc2/C=C(\C#N)C(N)=O)cc(OC)c1
inactive: dose: 25.0 mg/kg/injection, schedule: Q04DX002 (ip), vehicle: Klucel (hydroxypropylcellulose) (HPC) 94 % of control | dose: 50.0 mg/kg/injection, schedule: Q04DX002 (ip), vehicle: Klucel (hydroxypropylcellulose) (HPC) 97 % of control | [14] 105 % of control

NCc1cccc2ccccc12
inactive: dose: 62.5 mg/kg/injection, schedule: Q01DX001 (ip), vehicle: saline 109 % of control | [4] 112 % of control | dose: 125.0 mg/kg/injection, schedule: Q01DX001 (ip), vehicle: saline 104 % of control | [5] 96 % of control

COC(OC)c1[nH]c(=S)[nH]c(=O)c1Cc1cc(C)ccc1C
inactive: dose: 100.0 mg/kg/injection, schedule: Q01DX009 (ip), vehicle: saline 99 % of control | dose: 200.0 mg/kg/injection, schedule: Q01DX009 (ip), vehicle: saline 101 % of control | dose: 400.0 mg/kg/injection, schedule: Q01DX009 (ip), vehicle: saline 103 % of control
